Data reported in patent US11981661B2, “Heterocyclic compounds” (Hoffmann-La Roche Inc., priority 2020, dated 2024).

Target: T1, MAGL (Homo sapiens, UniProt Q99685)
T1 sequence (Q99685 1-303): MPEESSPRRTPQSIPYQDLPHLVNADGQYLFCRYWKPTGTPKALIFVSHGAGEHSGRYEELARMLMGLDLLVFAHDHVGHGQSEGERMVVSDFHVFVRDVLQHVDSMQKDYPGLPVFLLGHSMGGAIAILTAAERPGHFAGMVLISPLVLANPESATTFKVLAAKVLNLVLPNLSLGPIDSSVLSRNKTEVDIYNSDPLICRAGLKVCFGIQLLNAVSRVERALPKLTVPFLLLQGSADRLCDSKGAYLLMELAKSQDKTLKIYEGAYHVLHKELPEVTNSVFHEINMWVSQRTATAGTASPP
Test: 2-AG assay (MAGL inhibitory activity, hydrolysis of 2-arachidonoylglycerol followed by mass spectrometry)
Assay type: biochemical
Details: 50 pM MAGL, 8 μM 2-arachidonoylglycerol, 15 min preincubation, 30 min incubation at RT, concentration range 12.5 μM to 0.8 pM
Procedure, shortened: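 50 pM MAGL preincubated 15 min at RT with compound (12.5 μM to 0.8 pM) in 50 mM TRIS, 1 mM EDTA, 0.01% Tween, then 8 μM 2-arachidonoylglycerol for 30 min at RT. Arachidonic acid measured by RapidFire SPE–triple quadrupole MS in negative mode, normalised to d8-arachidonic acid.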

Question: With `O=C1N[C@H](CCC(=O)N2CC(c3cnc(NCC4(C(F)(F)F)CC4)cn3)C2)CO1` [Example 176, (4R)-4-[3-Oxo-3-[3-[5-[[1-(trifluoromethyl)cyclopropyl]methylamino]pyrazin-2-yl]azetidin-1-yl]propyl] oxazolidin-2-one] as the compound, how does the IC50 read?
Answer: 12 nM

Question: For `O=C1N[C@H](COC(=O)N2CC(C#Cc3ccccc3C(F)F)C2)CO1` [Example 61, [(4S)-2-Oxooxazolidin-4-yl]methyl 3-[2-[2-(difluoromethyl)phenyl]ethynyl] azetidine-1-carboxylate], which IC50 is on record?
Answer: 13 nM

Question: With `O=C1N[C@H](CCC(=O)N2CC(OCc3ccc(C(F)(F)F)cc3F)C2)CO1` [Example 20, (4R)-4-[3-[3-[[2-Fluoro-4-(trifluoromethyl)phenyl]methoxy]azetidin-1-yl]-3-oxo-propyl]oxazolidin-2-one] as the compound, how does the IC50 read?
Answer: 7 nM

Question: How did the IC50 turn out when `NS(=O)(=O)c1ccccc1CN1CC2(C1)CN(C(=O)CC[C@@H]1COC(=O)N1)C2` [Example 153, 2-[[2-[3-[(4R)-2-Oxooxazolidin-4-yl]propanoyl]-2,6-diazaspiro[3.3]heptan-6-yl]methyl]benzene-sulfonamide] was run?
Answer: 2330 nM

Question: `CN(Cc1ccc(C(F)(F)F)cc1F)C1CN(C(=O)CC[C@@H]2COC(=O)N2)C1` [Example 162, (4R)-4-[3-[3-[[2-Fluoro-4-(trifluoromethyl)phenyl]methyl-methyl-amino]azetidin-1-yl]-3-oxo-propyl] oxazolidin-2-one] was tested. Which IC50 did it give?
Answer: 108 nM

Question: `CS(=O)(=O)c1ccc(C(c2ccccc2)C2CCN(C(=O)CC[C@@H]3COC(=O)N3)CC2)cc1` (single isomer, unassigned) [Example 83, (+)- or (−)-(4R)-4-[3-[4-[(4-Methyl-sulfonylphenyl)-phenyl-methyl]-1-piperidyl]-3-oxo-propyl]oxazolidin-2-one] was tested. Which IC50 did it give?
Answer: 44 nM

Question: For `O=C(CCCc1cnn[nH]1)N1CC(c2ccc(N3CC(OCC(F)(F)F)C3)cc2)C1` [Example 46, 4-(1H-Triazol-5-yl)-1-[3-[4-[3-(2,2,2-trifluoroethoxy)azetidin-1-yl]phenyl]azetidin-1-yl]butan-1-one], which IC50 is on record?
Answer: 323 nM

Question: `CS(=O)(=O)c1ccc(-c2ccc(C3CN(C(=O)CC[C@@H]4COC(=O)N4)C3)cc2)c(Cl)c1` [Example 73, (4R)-4-[3-[3-[4-(2-Chloro-4-methyl-sulfonyl-phenyl)phenyl]azetidin-1-yl]-3-oxo-propyl]oxazolidin-2-one] was tested. Which IC50 did it give?
Answer: 1 nM

Question: How did the IC50 turn out when `CC(C)(C)c1ccc(C2CN(C(=O)CCC3CCC(=O)N3)C2)cc1` (single isomer, unassigned; (+)) [Example 4, (+)-5-[3-[3-(4-tert-Butylphenyl)azetidin-1-yl]-3-oxo-propyl]pyrrolidin-2-one] was run?
Answer: 5 nM

Question: How did the IC50 turn out when `O=C(CCCc1cnn[nH]1)N1CC(C#Cc2cccc(Cl)c2)C1` [Example 44, 1-[3-[2-(3-Chlorophenyl)ethynyl]azetidin-1-yl]-4-(1H-triazol-5-yl)butan-1-one] was run?
Answer: 61 nM

Question: `CS(=O)(=O)c1cc(Cl)ccc1-c1ccc(C2CN(C(=O)CC[C@@H]3COC(=O)N3)C2)cc1` [Example 82, (4R)-4-[3-[3-[4-(4-Chloro-2-methyl-sulfonyl-phenyl)phenyl]azetidin-1-yl]-3-oxo-propyl]oxazolidin-2-one] was tested. Which IC50 did it give?
Answer: 0.5 nM

Question: For `CC(C)(Oc1ccc(C2CN(C(=O)CCc3cnn[nH]3)C2)cc1)C(F)(F)F` [Example 38, 3-(1H-1,2,3-Triazol-5-yl)-l-(3-(4-((1,1,1-trifluoro-2-methylpropan-2-yl)oxy)phenyl)azetidin-1-yl)propan-1-one], which IC50 is on record?
Answer: 234 nM

Question: How did the IC50 turn out when `O=C1N[C@H](CCC(=O)N2CC(c3ccc(Oc4cnc(C(F)(F)F)cn4)cc3)C2)CO1` [Example 174, (4R)-4-[3-Oxo-3-[3-[4-[5-(trifluoromethyl)pyrazin-2-yl]oxyphenyl]azetidin-1-yl]propyl]oxazolidin-2-one] was run?
Answer: 20 nM

Question: How did the IC50 turn out when `O=C1N[C@H](CCC(=O)N2CC3(CCN(Cc4ccc(C(F)(F)F)cn4)CC3)C2)CO1` [Example 197, (4R)-4-[3-Oxo-3-[7-[[5-(trifluoro-methyl)-2-pyridyl]methyl]-2,7-diazaspiro [3.5]nonan-2-yl]propyl] oxazolidin-2-one] was run?
Answer: 324 nM

Question: Which IC50 does the source give for `O=C1COCC(CCC(=O)N2CC(OCc3ccc(C(F)(F)F)cc3F)C2)N1` (single isomer, unassigned; (+)) [Example 51, (+)-5-[3-[3-[[2-Fluoro-4-(trifluoromethyl)phenyl]methoxy]azetidin-1-yl]-3-oxo-propyl]morpholin-3-one] here?
Answer: 287 nM

Question: Which IC50 does the source give for `CS(=O)(=O)CC1CN(c2ccc(C3CN(C(=O)CC[C@@H]4COC(=O)N4)C3)cc2)C1` [Example 104, (4R)-4-[3-[3-[4-[3-(Methyl-sulfonylmethyl)azetidin-1-yl]phenyl]azetidin-1-yl]-3-oxo-propyl]oxazolidin-2-one] here?
Answer: 177 nM

Question: Which IC50 does the source give for `COC(=O)c1cc(Cl)ccc1Oc1ccc(C2CN(C(=O)CC[C@@H]3COC(=O)N3)C2)cn1` [Example 199, Methyl 5-chloro-2-[[5-[1-[3-[(4R)-2-oxooxazolidin-4-yl]propanoyl]azetidin-3-yl]-2-pyridyl]oxy]benzoate] here?
Answer: 14 nM

Question: `O=C1N[C@@H](CCC(=O)N2CC(c3ccc(-c4ccc(F)cc4F)cc3)C2)CO1` [Example 23, (4S)-4-[3-[3-[4-(2,4-Difluorophenyl)phenyl]azetidin-1-yl]-3-oxo-propyl]oxazolidin-2-one] was tested. Which IC50 did it give?
Answer: 381 nM

Question: Which IC50 does the source give for `O=C1N[C@H](CCC(=O)N2CC3(CC(Cc4cnc(C(F)(F)F)nc4)C3)C2)CO1` [Example 182, (4R)-4-[3-Oxo-3-[6-[[2-(trifluoro-methyl)pyrimidin-5-yl]methyl]-2-azaspiro[3.3]heptan-2-yl]propyl] oxazolidin-2-one] here?
Answer: 246 nM

Question: How did the IC50 turn out when `O=C1NC(COC(=O)N2CC(c3ccc(N4CCC(C(F)(F)F)C4)nc3)C2)CO1` (single isomer, unassigned) [Example 86, (−)- or (+)-[(4S)-2-Oxooxazolidin-4-yl]methyl 3-[6-[3-(trifluoromethyl)pyrrolidin-1-yl]-3-pyridyl]azetidine-1-carboxylate] was run?
Answer: 54 nM

Question: How did the IC50 turn out when `CS(=O)(=O)c1cc(F)ccc1OC1CCC2(CC1)CN(C(=O)CC[C@@H]1COC(=O)N1)C2` [Example 137, (4R)-4-[3-[7-(4-Fluoro-2-methyl-sulfonyl-phenoxy)-2-azaspiro[3.5]nonan-2-yl]-3-oxo-propyl] oxazolidin-2-one] was run?
Answer: 43 nM

Question: How did the IC50 turn out when `O=C1N[C@H](CCC(=O)N2CC(c3ccc(-c4ccc(Cl)cc4F)cn3)C2)CO1` [Example 113, (4R)-4-[3-[3-[5-(4-Chloro-2-fluoro-phenyl)-2-pyridyl]azetidin-1-yl]-3-oxo-propyl]oxazolidin-2-one] was run?
Answer: 3 nM

Question: Which IC50 does the source give for `O=C1N[C@@H](CCC(=O)N2CC(c3ccc(C4(C(F)(F)F)CC4)cc3)C2)CO1` [Example 21, (4S)-4-[3-Oxo-3-[3-[4-[1-(trifluoromethyl)cyclo-propyl]phenyl]azetidin-1-yl]propyl]oxazolidin-2-one] here?
Answer: 254 nM

Question: How did the IC50 turn out when `CC(C)(C)c1ccc(C2CN(C(=O)CC[C@@H]3COC(=O)N3)C2)nc1` [Example 72, (4R)-4-[3-[3-(5-tert-Butyl-2-pyridyl)azetidin-1-yl]-3-oxo-propyl]oxazolidin-2-one] was run?
Answer: 7 nM

Question: How did the IC50 turn out when `O=C1N[C@H](CCC(=O)N2CC(c3ccc(N4CC5(C4)CC(F)(F)C5)cc3)C2)CO1` [Example 132, (4R)-4-[3-[3-[4-(6,6-Difluoro-2-azaspiro[3.3]heptan-2-yl)phenyl]azetidin-1-yl]-3-oxo-propyl]oxazolidin-2-one] was run?
Answer: 9 nM

Question: Which IC50 does the source give for `O=C1N[C@H](CCC(=O)N2CC(OCc3ccc(S(=O)(=O)C(F)(F)F)cc3)C2)CO1` [Example 166, (4R)-4-[3-Oxo-3-[3-[[4-(trifluoro-methylsulfonyl)phenyl]methoxy]azetidin-1-yl]propyl]oxazolidin-2-one] here?
Answer: 48 nM

Question: Which IC50 does the source give for `O=C1N[C@H](CCC(=O)N2CC3(CCC(Cc4cnc(C(F)(F)F)cn4)CC3)C2)CO1` [Example 190, (4R)-4-[3-Oxo-3-[7-[[5-(trifluoro-methyl)pyrazin-2-yl]methyl]-2-azaspiro[3.5]nonan-2-yl]propyl] oxazolidin-2-one] here?
Answer: 140 nM

Question: For `CS(=O)(=O)c1ccc(-c2ncc(C3CN(C(=O)CC[C@@H]4COC(=O)N4)C3)cn2)c(Cl)c1` [Example 123, (4R)-4-[3-[3-[2-(2-Chloro-4-methylsulfonyl-phenyl)pyrimidin-5-yl]azetidin-1-yl]-3-oxo-propyl] oxazolidin-2-one], which IC50 is on record?
Answer: 982 nM

Question: With `O=C1CC[C@H](COC(=O)N2CC(OCc3ccc(C(F)(F)F)cc3F)C2)N1` [Example 53, [(2R)-5-Oxopyrrolidin-2-yl]methyl 3-[[2-fluoro-4-(trifluoromethyl)phenyl]methoxy] azetidine-1-carboxylate] as the compound, how does the IC50 read?
Answer: 907 nM

Question: For `O=C1N[C@H](CCC(=O)N2CC3(CC(Cc4ncc(C(F)(F)F)cn4)C3)C2)CO1` [Example 183, (4R)-4-[3-Oxo-3-[6-[[5-(trifluoro-methyl)pyrimidin-2-yl]methyl]-2-azaspiro[3.3]heptan-2-yl]propyl] oxazolidin-2-one], which IC50 is on record?
Answer: 84 nM

Question: `O=C(OCCc1cnn[nH]1)N1CC(OCc2ccc(C(F)(F)F)cc2F)C1` [Example 63, 2-(1H-Triazol-5-yl)ethyl 3-[[2-fluoro-4-(trifluoro-methyl)phenyl]methoxy]azetidine-1-carboxylate] was tested. Which IC50 did it give?
Answer: 19 nM

Question: Which IC50 does the source give for `O=C1COCC(CCC(=O)N2CC(OCc3ccc(C(F)(F)F)cc3F)C2)N1` (single isomer, unassigned; (-)) [Example 50, (−)-5-[3-[3-[[2-Fluoro-4-(trifluoromethyl)phenyl]methoxy]azetidin-1-yl]-3-oxo-propyl]morpholin-3-one] here?
Answer: ≥ 12500 nM
